For ten compounds, IC50 and MIC results are on record in US20240270762A1, “PENICILLIN-BINDING PROTEIN INHIBITORS” (priority 2021, published 2024).

Values after ≈ are worked out from the molar mass of the structure shown. A value given as a limit tells only on which side of the number the result lay.

In experiment [1] the target is T1, PBP1a from Acinetobacter baumannii (ATCC 19606) (Acinetobacter baumannii, UniProt A0ABX6CK30).
T1 sequence (A0ABX6CK30 1-851): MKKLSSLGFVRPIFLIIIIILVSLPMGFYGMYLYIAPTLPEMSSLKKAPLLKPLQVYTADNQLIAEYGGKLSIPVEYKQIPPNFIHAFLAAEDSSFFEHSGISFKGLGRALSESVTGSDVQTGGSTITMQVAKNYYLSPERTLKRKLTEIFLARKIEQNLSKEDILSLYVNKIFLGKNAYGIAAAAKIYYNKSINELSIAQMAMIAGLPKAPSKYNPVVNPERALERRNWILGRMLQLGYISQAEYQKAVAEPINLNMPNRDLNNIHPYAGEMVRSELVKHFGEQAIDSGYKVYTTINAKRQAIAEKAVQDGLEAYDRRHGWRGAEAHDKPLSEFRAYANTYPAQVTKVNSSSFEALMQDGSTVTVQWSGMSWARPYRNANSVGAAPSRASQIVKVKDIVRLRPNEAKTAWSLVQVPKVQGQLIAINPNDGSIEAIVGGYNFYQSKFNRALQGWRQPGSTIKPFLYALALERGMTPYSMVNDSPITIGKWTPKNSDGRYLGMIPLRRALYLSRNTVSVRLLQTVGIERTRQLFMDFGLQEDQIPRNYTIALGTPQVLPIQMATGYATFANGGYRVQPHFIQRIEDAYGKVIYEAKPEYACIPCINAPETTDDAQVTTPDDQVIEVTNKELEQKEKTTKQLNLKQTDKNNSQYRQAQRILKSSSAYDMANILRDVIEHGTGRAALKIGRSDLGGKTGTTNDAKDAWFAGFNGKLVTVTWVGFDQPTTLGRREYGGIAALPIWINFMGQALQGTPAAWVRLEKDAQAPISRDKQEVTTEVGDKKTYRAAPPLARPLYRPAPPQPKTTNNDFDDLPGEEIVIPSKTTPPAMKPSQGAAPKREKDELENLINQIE
Kind of experiment: Bocillin-FL fluorescence polarization competition binding, A. baumannii PBP1a. The following applies: fluorescence polarization competition binding assay using Bocillin-FL; read-out: A. baumannii PBP1a Potency. From the text: To determine the ability of boronic acid-based test PBP inhibitors to bind Penicillin Binding Proteins (PBPs), Bocillin-FL (fluorescently-labeled penicillin V; ThermoFisher Scientific) was used in a fluorescence polarization (FP) competition binding assay to assess inhibitor binding to PBP3 from Escherichia coli (K-12), PBP3 from Pseudomonas aeruginosa (PAO1), PBP1a and PBP3 from Acinetobacter baumannii (ATCC 19606), and PBP2 from Neisseria gonorrhoeae (FA19). PBPs were cloned and purified as described previously (E. coli PBP3, King, D. T, et al., ACS Infectious Diseases 2015, 1, 175-184; P. aeruginosa PBP3, Han et. al., PNAS 2010, 107 (51), 22002-22007; A. baumannii PBPs, Penwell et. al., Antimicrob. Agents Chemother. 2015, 59 (3), 1680-1689; N. gonorrhoeae PBP2, Singh et. al., J. Biol. Chem. 2019, 294 (38), 14020-14032). To establish assay conditions for competition binding, enzyme titration/saturation binding experiments were initially performed. Bocillin-FL was prepared at 0.2 μM in a buffer comprised of 50 mM Hepes (pH 8.0), 300 mM NaCl and 10% (v/v) glycerol for reactions with E. coli, P. aeruginosa and N. gonorrhoeae PBPs, and 25 mM Tris (pH 8.0), 200 mM NaCl, 10% (v/v) glycerol and 0.005% (v/v) Tween 20 for reactions with A. baumannii PBPs. Saturation binding was performed by mixing 40 μl of PBP solutions ranging in concentrations from 0-24 μM with 40 μl of the 0.2 μM Bocillin-FL solution, in individual wells of a black 384-well microplate. FP was measured immediately upon mixing (Excitation, 490 nm; Emission, 520 nm; g-factor, 0.96), using a Cytation3 (BioTek) microplate reader and measured continuously for up to 120 minutes. The FP response stabilized after 15 minutes for P. aeruginosa and A. baumannii PBP3, 30 minutes for E. coli PBP3 and A. baumannii PBP1a, and less than 1 minute for N. gonorrhoeae PBP2. […] The competition binding assay (80 μl final volume) was validated using beta-lactams and PBPs at final concentrations of: 1.5 μM for E. coli PBP3; 0.75 μM for P. aeruginosa PBP3; 1 μM for A. baumannii PBP1a; 0.2 μM for A. baumannii PBP3; and 0.25 μM for N. gonorrhoeae PBP2. Bocillin-FL was at 0.1 μM (0.05 μM with A. baumannii PBP1a) and beta-lactam concentrations ranged from 0-1,000 μM. E. coli PBP3 was incubated with increasing concentrations of ampicillin in a black 384-well microplate (Corning) for 30 minutes. P. aeruginosa PBP3 was incubated for 15 minutes with aztreonam, whereas A. baumannii PBP1a and PBP3 were incubated for 15 minutes with meropenem, and then Bocillin-FL was added followed immediately by the FP measurement for up to 60 minutes. […] The beta-lactam potency was reported as the concentration of beta-lactam required to reduce the amount of PBP bound-Bocillin-FL by 50% (EC50). […] The EC50 of aztreonam was determined to be <0.5 μM for P. aeruginosa PBP3. […] Binding assays for boronic acid PBP inhibitors were performed in an identical fashion for the respective PBPs.
In general terms: Polarisation of emitted light reports the rotation of a fluorescent probe.

The next experiment relates to A. baumannii 1258916. Kind of experiment: microbe, parasite or virus in culture. The class given is cell-based, Acinetobacter baumannii. The following applies: Acinetobacter baumannii, 1258916, read-out: MIC, A. baumannii 1258916.
Experiment [2] relates to B. thailandensis ATCC 700388. Put plainly: microbe, parasite or virus in culture. The class given is cell-based. The following applies: Burkholderia thailandensis, ATCC700388, read-out: Minimum inhibitory concentration (MIC), B. thailandensis ATCC 700388.
A further experiment deals with P. aeruginosa CDC-0054. Kind of experiment: microbe, parasite or virus in culture. The class given is cell-based. The following applies: Pseudomonas aeruginosa, CDC0054, read-out: Minimum inhibitory concentration, P. aeruginosa CDC-0054.
Another experiment has as its system P. aeruginosa ATCC 35151. Kind of experiment: microbe, parasite or virus in culture. The class given is cell-based. Particulars: Pseudomonas aeruginosa, ATCC35151, read-out: Minimum inhibitory concentration, P. aeruginosa ATCC 35151.
The test system of a further experiment is A. baumannii CDC-0045. Kind of experiment: microbe, parasite or virus in culture. The class given is cell-based. The following applies: Acinetobacter baumannii, CDC0045, read-out: MIC, A. baumannii CDC-0045.
The next experiment deals with A. baumannii CDC-0033. Put plainly: microbe, parasite or virus in culture. The class given is cell-based. The following applies: Acinetobacter baumannii, CDC0033, read-out: MIC, A. baumannii CDC-0033.
The next experiment concerns P. aeruginosa ATCC 27853. Put plainly: microbe, parasite or virus in culture. The class given is cell-based. Particulars: Pseudomonas aeruginosa, ATCC27853, read-out: Minimum inhibitory concentration, P. aeruginosa ATCC 27853.

With `CS(=O)(=O)N1CCN(C(=O)N[C@@H](C(=O)N[C@H]2Cc3cccc(C(=O)O)c3OB2O)c2ccc(P(=O)(O)O)c(F)c2F)C1=O` (single isomer, unassigned) [Example 13], the IC50 in experiment [1] was over 250 µM.

With `CS(=O)(=O)N1CCN(C(=O)N[C@@H](C(=O)N[C@H]2Cc3ccc(F)c(C(=O)O)c3OB2O)c2ccc(P(=O)(O)O)c(F)c2)C1=O` (single isomer, unassigned) [Example 19], the MIC with A. baumannii 1258916 was over 128 µg/mL; in experiment [2] it was 32 to 64 µg/mL (≈ 49.5 to 99 µM); with P. aeruginosa CDC-0054, over 128 µg/mL; with P. aeruginosa ATCC 35151, 2 to 4 µg/mL (≈ 3.09 to 6.19 µM); with A. baumannii CDC-0045 it was over 128 µg/mL; in the experiment on A. baumannii CDC-0033, over 128 µg/mL. Also, in the experiment on P. aeruginosa ATCC 27853, the MIC is over 128 µg/mL.

Turning to `O=C(O)c1c(F)ccc2c1OB(O)[C@@H](NC(=O)C(NC(=O)N1CCN(Cc3ccc(O)c(O)c3Cl)C(=O)C1=O)c1ccc(P(=O)(O)O)cc1)C2` (stereo partly drawn) [Example 8, (3R)-3-(2-(4-(2-chloro-3,4-dihydroxybenzyl)-2,3-dioxopiperazine-1-carboxamido)-2-(4-phosphonophenyl)acetamido)-7-fluoro-2-hydroxy-3,4-dihydro-2H-benzo[e][1,2]oxaborinine-8-carboxylic acid], the MIC (with A. baumannii 1258916; in experiment [2]; in the experiment with P. aeruginosa CDC-0054; in the experiment with P. aeruginosa ATCC 35151; with A. baumannii CDC-0045; in the experiment on A. baumannii CDC-0033) was under 1 µg/mL each time. The MIC in the experiment on P. aeruginosa ATCC 27853 was under 1 µg/mL.

In the case of `CS(=O)(=O)N1CCN(C(=O)NC(C(=O)N[C@H]2Cc3cccc(C(=O)O)c3OB2O)c2ccc(P(=O)(O)O)c(Cl)c2)C1=O` (stereo partly drawn) [Example 11, (3R)-3-(2-(3-chloro-4-phosphonophenyl)-2-(3-(methylsulfonyl)-2-oxoimidazolidine-1-carboxamido)acetamido)-2-hydroxy-3,4-dihydro-2H-benzo[e][1,2]oxaborinine-8-carboxylic acid], the IC50 in experiment [1] is 50 to 250 µM.

As for `CS(=O)(=O)N1CCN(C(=O)N[C@@H](C(=O)N[C@H]2Cc3ccc(F)c(C(=O)O)c3OB2O)c2ccc(P(=O)(O)O)c(F)c2F)C1=O` [Example 16, (R)-3-((R)-2-(2,3-difluoro-4-phosphonophenyl)-2-(3-(methylsulfonyl)-2-oxoimidazolidine-1-carboxamido)acetamido)-7-fluoro-2-hydroxy-3,4-dihydro-2H-benzo[e][1,2]oxaborinine-8-carboxylic acid], in experiment [1], the IC50 is over 250 µM.

Regarding `CCN1CCN(C(=O)NC(C(=O)N[C@H]2Cc3cccc(C(=O)O)c3OB2O)c2ccc(CP(=O)(O)O)cc2)C(=O)C1=O` (stereo partly drawn) [Example 20, (3R)-3-(2-(4-ethyl-2,3-dioxopiperazine-1-carboxamido)-2-(4-(phosphonomethyl)phenyl)acetamido)-2-hydroxy-3,4-dihydro-2H-benzo[e][1,2]oxaborinine-8-carboxylic acid], the IC50 in experiment [1] was over 250 µM.

Consider `CCN1CCN(C(=O)NC(C(=O)N[C@H]2Cc3cccc(C(=O)O)c3OB2O)c2cccc(CP(=O)(O)O)c2)C(=O)C1=O` (stereo partly drawn) [Example 22, (3R)-3-(2-(4-ethyl-2,3-dioxopiperazine-1-carboxamido)-2-(3-(phosphonomethyl)phenyl)acetamido)-2-hydroxy-3,4-dihydro-2H-benzo[e][1,2]oxaborinine-8-carboxylic acid], for which the IC50 in experiment [1] was over 250 µM.

On to `O=C(O)c1c(F)ccc2c1OB(O)[C@@H](NC(=O)C(NC(=O)N1CCN(Cc3ccc(O)c(O)c3Cl)C1=O)c1ccc(P(=O)(O)O)cc1)C2` (stereo partly drawn) [Example 46, (3R)-3-(2-(3-(2-chloro-3,4-dihydroxybenzyl)-2-oxoimidazolidine-1-carboxamido)-2-(4-phosphonophenyl)acetamido)-7-fluoro-2-hydroxy-3,4-dihydro-2H-benzo[e][1,2]oxaborinine-8-carboxylic acid], for which the MIC in experiment [2] is under 1 µg/mL; in the experiment on P. aeruginosa CDC-0054 it was 2 to 4 µg/mL (≈ 2.83 to 5.66 µM); in the experiment on P. aeruginosa ATCC 35151, under 1 µg/mL; in the experiment on P. aeruginosa ATCC 27853, 2 to 4 µg/mL (≈ 2.83 to 5.66 µM). In addition, the IC50 in experiment [1] was over 250 µM.

`O=C(N[C@@H](C(=O)N[C@H]1Cc2cccc(C(=O)O)c2OB1O)c1ccc(P(=O)(O)O)cc1)c1ccc(O)c(O)c1Cl` [Example 49, (R)-3-((R)-2-(2-chloro-3,4-dihydroxybenzamido)-2-(4-phosphonophenyl)acetamido)-2-hydroxy-3,4-dihydro-2H-benzo[e][1,2]oxaborinine-8-carboxylic acid]: the MIC is over 128 µg/mL in the experiment on A. baumannii 1258916; 2 to 4 µg/mL (≈ 3.39 to 6.77 µM) in experiment [2]; under 1 µg/mL in the experiment on P. aeruginosa CDC-0054; under 1 µg/mL in the experiment on P. aeruginosa ATCC 35151; over 128 µg/mL in the experiment on A. baumannii CDC-0045; over 128 µg/mL with A. baumannii CDC-0033. In addition, the MIC in the experiment with P. aeruginosa ATCC 27853 lay within 2 to 4 µg/mL (≈ 3.39 to 6.77 µM).

Turning to `O=C(NCCN1CCN(C(=O)NC(C(=O)N[C@H]2Cc3ccc(F)c(C(=O)O)c3OB2O)c2ccc(P(=O)(O)O)cc2)C(=O)C1=O)c1ccc(O)c(O)c1Cl` (stereo partly drawn) [Example 120, (3R)-3-(2-(4-(2-(2-chloro-3,4-dihydroxybenzamido)ethyl)-2,3-dioxopiperazine-1-carboxamido)-2-(4-phosphonophenyl)acetamido)-7-fluoro-2-hydroxy-3,4-dihydro-2H-benzo[e][1,2]oxaborinine-8-carboxylic acid], the MIC in the experiment with A. baumannii 1258916 is under 1 µg/mL; in experiment [2], under 1 µg/mL; with P. aeruginosa CDC-0054, under 1 µg/mL; in the experiment on P. aeruginosa ATCC 35151, under 1 µg/mL; in the experiment with A. baumannii CDC-0045, under 1 µg/mL; in the experiment with A. baumannii CDC-0033, 2 to 4 µg/mL (≈ 2.53 to 5.05 µM). For the same compound, the MIC in the experiment on P. aeruginosa ATCC 27853 was under 1 µg/mL.
